Data: the supplement of paper PMC10307832

Compound: Cc1ccc2nc(NCCN)c3ncc(C)n3c2c1 + O=C(c1cc(Cc2n[nH]c(=O)c3ccccc23)ccc1F)N1CCN(C(=O)C2CC2)CC1 [Olaparib] (partner 8 µM)
Assay: relative viability (nuclei count vs DMSO), 5 days (fraction); higher = more cells survive
Details: first compound 0.04 µM
How it was run: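 Lung cancer cell lines in 1536-well plates were dosed by pin tool the day after seeding, either with one drug alone or with a fixed anchor-drug dose plus five library-drug doses (not always all listed) in √10 steps. After 5 days, cells were fixed and their nuclei stained in one step (final 0.05% Triton X-100, 1% formaldehyde, 1 ug/ml Hoechst), then counted on 4× images. Relative viability is the nuclei count in treated wells divided by that in vehicle wells. Values are medians of duplicate plates.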

| Cell Line | relative viability |
| --- | --- |
| NCI-H2405 | 0.91 |
| HOP-62 | 0.286 |
| HCC-44 | 0.999 |
| LU99A | 0.322 |
| BEN | 1.17 |
| HARA | 0.73 |
| HCC-78 | 0.746 |
| NCI-H322M | 0.698 |
| LCLC-97TM1 | 0.491 |
| A-427 | 0.723 |
| NCI-H441 | 0.631 |
| NCI-H1734 | 0.666 |
| NCI-H460 | 0.481 |
| NCI-H2347 | 0.601 |
| NCI-H1395 | 0.47 |
| 201T | 0.945 |

| Cell Line | relative viability |
| --- | --- |
| NCI-H1915 | 0.286 |
| HCC-827 | 0.689 |
| LXF-289 | 1.16 |
| NCI-H23 | 0.37 |
| NCI-H647 | 0.602 |
| NCI-H1651 | 0.178 |
| EPLC-272H | 0.869 |
| NCI-H1792 | 0.499 |
| NCI-H1355 | 0.79 |
| NCI-H3122 | 0.653 |
| NCI-H1437 | 0.641 |
| NCI-H1755 | 0.859 |
| HCC-15 | 0.648 |
| PC-14 | 0.278 |
| EKVX | 0.941 |
| LC-2-ad | 0.729 |

Same assay, conditions: first compound 0.1265 µM

| Cell Line | relative viability |
| --- | --- |
| NCI-H1793 | 0.812 |
| NCI-H2405 | 0.795 |
| HOP-62 | 0.457 |
| HCC-44 | 0.96 |
| LU99A | 0.319 |
| BEN | 1.18 |
| HARA | 0.782 |
| HCC-78 | 0.861 |
| NCI-H322M | 0.816 |
| LCLC-97TM1 | 0.428 |
| A-427 | 0.672 |
| NCI-H441 | 0.384 |
| NCI-H1734 | 0.617 |
| NCI-H460 | 0.421 |
| NCI-H2347 | 0.566 |
| NCI-H1395 | 0.467 |
| 201T | 0.839 |

| Cell Line | relative viability |
| --- | --- |
| NCI-H1915 | 0.251 |
| HCC-827 | 0.73 |
| LXF-289 | 1.02 |
| NCI-H23 | 0.324 |
| NCI-H647 | 0.492 |
| NCI-H1651 | 0.181 |
| EPLC-272H | 0.814 |
| NCI-H1792 | 0.279 |
| NCI-H1355 | 0.72 |
| NCI-H3122 | 0.67 |
| NCI-H1437 | 0.613 |
| NCI-H1755 | 0.878 |
| HCC-15 | 0.752 |
| PC-14 | 0.324 |
| EKVX | 0.82 |
| LC-2-ad | 0.743 |

Same assay, conditions: first compound 0.4 µM

| Cell Line | relative viability |
| --- | --- |
| NCI-H1793 | 0.836 |
| NCI-H2405 | 0.927 |
| HOP-62 | 0.436 |
| HCC-44 | 0.955 |
| LU99A | 0.288 |
| BEN | 1.07 |
| HARA | 0.791 |
| HCC-78 | 0.655 |
| NCI-H322M | 0.881 |
| LCLC-97TM1 | 0.462 |
| A-427 | 0.693 |
| NCI-H441 | 0.622 |
| NCI-H1734 | 0.658 |
| NCI-H460 | 0.443 |
| NCI-H2347 | 0.485 |
| NCI-H1395 | 0.491 |

| Cell Line | relative viability |
| --- | --- |
| 201T | 0.804 |
| NCI-H1915 | 0.242 |
| HCC-827 | 0.661 |
| LXF-289 | 1.03 |
| NCI-H23 | 0.319 |
| NCI-H647 | 0.517 |
| NCI-H1651 | 0.179 |
| EPLC-272H | 0.98 |
| NCI-H1355 | 0.754 |
| NCI-H3122 | 0.507 |
| NCI-H1437 | 0.616 |
| NCI-H1755 | 0.835 |
| HCC-15 | 0.7 |
| PC-14 | 0.241 |
| EKVX | 0.775 |
| LC-2-ad | 0.71 |

Same assay, conditions: first compound 1.265 µM

| Cell Line | relative viability |
| --- | --- |
| NCI-H1793 | 0.651 |
| NCI-H2405 | 0.825 |
| HOP-62 | 0.417 |
| HCC-44 | 1 |
| LU99A | 0.29 |
| BEN | 1.04 |
| HARA | 0.759 |
| HCC-78 | 0.587 |
| NCI-H322M | 0.796 |
| LCLC-97TM1 | 0.417 |
| A-427 | 0.711 |
| NCI-H441 | 0.646 |
| NCI-H1734 | 0.321 |
| NCI-H460 | 0.342 |
| NCI-H2347 | 0.525 |
| NCI-H1395 | 0.429 |
| 201T | 0.829 |

| Cell Line | relative viability |
| --- | --- |
| NCI-H1915 | 0.279 |
| HCC-827 | 0.639 |
| LXF-289 | 1.13 |
| NCI-H23 | 0.276 |
| NCI-H647 | 0.642 |
| NCI-H1651 | 0.18 |
| EPLC-272H | 0.686 |
| NCI-H1792 | 0.458 |
| NCI-H1355 | 0.764 |
| NCI-H3122 | 0.582 |
| NCI-H1437 | 0.643 |
| NCI-H1755 | 0.903 |
| HCC-15 | 0.75 |
| PC-14 | 0.261 |
| EKVX | 0.706 |
| LC-2-ad | 0.768 |

Same assay, conditions: first compound 4 µM

| Cell Line | relative viability |
| --- | --- |
| NCI-H1793 | 0.795 |
| NCI-H2405 | 0.779 |
| HOP-62 | 0.42 |
| HCC-44 | 0.977 |
| LU99A | 0.258 |
| BEN | 1.24 |
| HARA | 0.365 |
| HCC-78 | 0.766 |
| NCI-H322M | 0.638 |
| LCLC-97TM1 | 0.338 |
| A-427 | 0.63 |
| NCI-H441 | 0.549 |
| NCI-H1734 | 0.553 |
| NCI-H460 | 0.273 |
| NCI-H2347 | 0.501 |
| NCI-H1395 | 0.437 |
| 201T | 0.823 |

| Cell Line | relative viability |
| --- | --- |
| NCI-H1915 | 0.255 |
| HCC-827 | 0.607 |
| LXF-289 | 1.1 |
| NCI-H23 | 0.242 |
| NCI-H647 | 0.268 |
| NCI-H1651 | 0.175 |
| EPLC-272H | 0.778 |
| NCI-H1792 | 0.295 |
| NCI-H1355 | 0.659 |
| NCI-H3122 | 0.579 |
| NCI-H1437 | 0.553 |
| NCI-H1755 | 0.791 |
| HCC-15 | 0.622 |
| PC-14 | 0.127 |
| EKVX | 0.737 |
| LC-2-ad | 0.71 |
